“Also recorded” adds a separate entry of the source. Ends that are not written are not given here.

Data set [1] has as its system isolated rat hemidiaphragm muscle. Kind of data set: Glycogen synthesis in isolated rat hemidiaphragm muscle (incorporation of 14C-glucose into glycogen, in presence of insulin). It is filed as cell-based. Conditions: for biological activity on insulin-stimulated glycogen synthesis (in words): isolated rat muscle, FIG. 3 / FIG. 7. The method, then: Glycogen synthesis in isolated rat hemidiaphragm muscle was measured by the rate of incorporation of radioactive glucose into glycogen (16). Overnight-fasted male albino Wistar rats (20 week old) were killed by decapitation and their hemidiaphragm tissues immediately removed. The hemidiaphragm tissues were pre-incubated for 30 min at 37° C., in Kreb's-Ringer bicarbonate buffer (KRB) containing 1.0% bovine serum albumin BSA, and 1.0 mg/ml glucose gassed pH 7.4. After pre-incubation, the tissues were further incubated for 60 min at 37° C. in 2 ml of incubation buffer in the presence of insulin at a concentration 0.33 μu/ml and the label ^14C-glucose at 0.28 μCi/ml under an atmosphere of carbogen with or without peptide of various concentrations. At the end of the incubation, the tissues were removed and rinsed with cold distilled water, blotted and placed in a plastic centrifuge tubes for glycogen extraction with 30% KOH 10 μl/mg tissue for 5 min in a boiling water bath. The tissue ^14C-glycogen was precipitated with saturated Na2SO4 and absolute alcohol. After centrifugation at 4000×G at 4° C. for 10 min, the supematant was discarded and the precipitate washed twice by resuspending in 66% ethanol and centrifuged as before. The final glycogen precipitate was dissolved in distilled water 30 μl/mg and 1.0 ml of the solution was transferred to a counting vial containing a triton scintillator (8 ml). Radioactivity was determined in a Wallac LKB counter from Pharmacia-Wallac Oy, (Turku, Finland). The total glycogen content in the diaphragm muscle was calculated according to the method of Van Handel (17).
(§1) Experimental procedures for the in vitro and in vivo assays were described in Example 1. In principle, the rate of conversion from glucose into glycogen in isolated hemidiaphragm muscle was used as the index to determine the in vitro activity of peptides (6). The in vivo tests for the peptides were performed on Zucker fatty (fa/fa) rats by i.v. administration of peptides and the reduction of the blood glucose levels was measured and regarded as the index of the hypoglycaemic effect (18).

Data set [2] in a line: Isoaspartate (β-isomerised) formation in synthetic peptides, by reverse-phase HPLC. Conditions: β-isomerised peptide obtained after synthesis (piperidine deprotection, TFA cleavage), HPLC 214 nm. Type of data set: physicochemical. On the procedure:
A mixture of synthetic peptides (Gly-His-Thr-Asp, Val-His-Thr-Asp and Asp-His-Thr-Gly) and their corresponding β-isomerised formation (Gly-His-Thr-βAsp, Val-His-Thr-βAsp and βAsp-His-Thr-Gly) were separated by reverse-phase HPLC and eluted with an isocritic running with 2% buffer B (buffer A is 0.1% trifluoroacetic acid in H2O) at 1 ml/min over 30 min. Peptides were determined by their absorbance at 214 nm.
Based on the structure of the UP-401 peptide, analogues with various sequences were synthesised for further biological characterization as shown in Table 1. All synthetic peptides were purified by RP-HPLC using a C18 column and characterized by mass spectrometry. During synthesis, the peptide chains were treated with base (piperidine) in deprotection steps and then eventually treated with TFA at cleavage steps.
Table 2 and FIG. 5 outline the amino acid sequence of the UP-401 peptide and its analogues, and the ratio of nonisomerized and β-isomerised peptide obtained in each.

The subject of data set [3] is male Zucker fatty (fa/fa) rats. Kind of data set: In vivo hypoglycaemic test: blood glucose after i.v. peptide then insulin. To be noted: for in vivo hypoglycaemic effect on blood glucose levels (in words): i.v., overnight-fasted Zucker fatty rats, compared with saline control or comparator peptide. Also noted: species or system rat; blood glucose level reduced to a maximum of / Reduction of blood glucose level: unit not given here. On the procedure:
In vivo tests of the hypoglycaemic peptides were performed on overnight-fasted male Zucker fatty (fa/fa) rats 45 min after induction of anaesthesia with an intraperitoneal injection of sodium pentobarbitone at a dose 60 mg/kg body weight. Basal blood glucose samples were collected from the cut tip of the tail. The two femoral veins in the anaesthetised animals were then exposed, followed immediately by an intravenous injection of saline (control) or peptide into the left femoral vein. Approximately 15 min after the administration of peptide or saline via the left femoral vein, insulin was injected via the right femoral vein. […] Blood glucose levels of the collected samples were measured immediately by the glucose oxidation method using a Yellow Springs YSI modal 2300 STAT Glucose Analyzer (Yellow Spring, Ohio).
as §1

Where [4] appears, read: 3 mg/kg body weight, Example 1, FIG. 4.

Consider Asp-His-Thr-Gly-NH2 (DHTG-NH2) [UP-403], for which the results for the “biological activity on insulin-stimulated glycogen synthesis (in words)” value (“biological activity … (in words)” below) in data set [1] and in data set [1] (listed as Asp-His-Thr-Gly) were “reduced the peptide activity; also recorded: reduced the potency” and “also detected”, respectively. The substance further registered an Isoasp in data set [2] of 75.2.

Regarding Gly-His-Thr-Asp-NH2 (GHTD-NH2) [UP-401], in data set [1] (isolated rat hemi-diaphragm, with insulin, synthetic peptide 0.1 μM (FIG. 3)), the “increase of glycogen synthesis” value turned out to be 36.3%. In data set [1], the “biological activity … (in words)” value is “better insulin-potentiating effect than that of the known insulin-potentiating hGH(6–13) peptide”. The “hypoglycaemic action diminished after” value in data set [3] (setting [4]) amounted to 90 min. In addition, the “in vivo hypoglycaemic action found after the injection (onset)” value in data set [3] (setting [4]) stood at 15 min. For the same substance, the “time of maximal hypoglycaemic effect after treatment” value in data set [3] (setting [4]) was 45 min. For the same substance, the “time of maximal decrease in blood glucose level after treatment” value in data set [3] (3 mg/kg, Example 2) is listed as 60 min. Also, the “Reduction of blood glucose level” value in data set [3] (3 mg, 15 min) was −0.50; in data set [3] (3 mg, 30 min) it was −0.91; in data set [3] (3 mg, 45 min), −1.1; in data set [3] (3 mg, 60 min) it was −0.93; in data set [3] (3 mg, 75 min), −0.64; in data set [3] (3 mg, 90 min), −0.08. Moreover, the “in vivo hypoglycaemic effect on blood glucose levels (in words)” value in data set [3] was “significant”. The Isoasp in data set [2] amounted to 45.2.

Val-His-Thr-Asp-NH2 (VHTD-NH2) [UP-402]: in data set [1] (in vitro, insulin-stimulated, isolated rat muscle (FIG. 7)), the higher glycogen synthesis is listed as 68%. Further, the “biological activity … (in words)” value in data set [1] is reported as “much higher than that of any other peptide”. Further, the “blood glucose level reduced to a maximum of” value in data set [3] (3 mg/kg body weight) is recorded as 0.95. Moreover, the “Reduction of blood glucose level” value in data set [3] (3 mg, 15 min) is listed as −0.26; in data set [3] (3 mg, 30 min), −0.62; in data set [3] (3 mg, 45 min), −1.21; in data set [3] (3 mg, 60 min), −1.25; in data set [3] (3 mg, 75 min) it was −0.64; in data set [3] (3 mg, 90 min), 0.05. Further, the “Reduction of blood glucose level” value was −0.43 in data set [3] (4.5 mg, 15 min); −1.03 in data set [3] (4.5 mg, 30 min); −1.50 in data set [3] (4.5 mg, 45 min); −1.45 in data set [3] (4.5 mg, 60 min); −1.52 in data set [3] (4.5 mg, 75 min); −1.35 in data set [3] (4.5 mg, 90 min). Also, the “Reduction of blood glucose level” value in data set [3] (4.5 mg, 120 min) is 0.07. Also, in data set [3] (4.5 mg/kg body weight, FIG. 8), the “effect on blood glucose prolonged to” value amounted to 120 min. In data set [2], this substance registered an Isoasp of 48.3.

Regarding Val-His-Thr-Pro-NH2 (VHTP-NH2) [UP-404], the “biological activity … (in words)” value in data set [1] was “reduced the potency”; in data set [1] (listed as Val-His-Thr-Pro) it was “no appreciable stimulation”. For the same substance, the “Reduction of blood glucose level” value in data set [3] (3 mg, 15 min) was −0.21; in data set [3] (3 mg, 30 min), −0.54; in data set [3] (3 mg, 45 min), −0.77; in data set [3] (3 mg, 60 min), −0.95; in data set [3] (3 mg, 75 min) it was 0.23; in data set [3] (3 mg, 90 min), −0.03.

As for “Val-His-Thr-isoAsp-NH2 (VHTX; HELM PEPTIDE1{V.H.T.[O=C(O)[C@H](CC(=O)[*:2])N[*:1]].[am]}$$$$V2.0; N-terminus assumed; SMILES CC(C)[C@H](N)C(=O)N[C@@H](Cc1c[nH]cn1)C(=O)N[C@H](C(=O)N[C@@H](CC(N)=O)C(=O)O)[C@@H](C)O) [UP-406]”, the “biological activity … (in words)” value in data set [1] was “reduced the potency”. For the same substance, the “biological activity of isoaspartate peptide, reduced to (relative to Val-His-Thr-Asp)” value in data set [1] (peptide concentration of 0.1 mM, insulin-stimulated glycogen synthesis) worked out at 46%. The “in vivo hypoglycaemic effect on blood glucose levels (in words)” value in data set [3] was “No significant difference”.

Regarding “isoAsp-His-Thr-Gly-NH2 (XHTG; HELM PEPTIDE1{[N[C@@H](CC(=O)[*:2])C(=O)O].H.T.G.[am]}$$$$V2.0; N-terminus assumed; SMILES C[C@@H](O)[C@H](NC(=O)[C@H](Cc1c[nH]cn1)NC(=O)C[C@H](N)C(=O)O)C(=O)NCC(N)=O) [UP-407]”, the “biological activity … (in words)” value in data set [1] was “reduced the peptide activity”; in data set [1] (listed as βAsp-His-Thr-Gly), “also detected”.
